In patent US11998610B2, “Conjugates and methods of using the same” (Flagship Pioneering Innovations V, Inc., priority 2018, dated 2024):
Non-standard residues stand in square brackets, D forms with d. Residues, ends and D or L forms follow the SMILES beside them. *: point of attachment. Myristoyl = CCCCCCCCCCCCCC(=O)*; PhAc = O=C(Cc1ccccc1)*

What was measured:
[1] = Stability of conjugates in Simulated Gastric Fluid (SGF); type: in vitro ADME; details: simulated gastric fluid pH 1.6 with pepsin, 1 μM, 37° C.
Experimental: Assay 1. Stability of conjugates in Simulated Gastric Fluid (SGF). This assay was used to assess the stability of a conjugate in a stomach. Medium was prepared by dissolving 2 g of sodium chloride in 0.6 L in ultrapure water (MilliQ®, Millipore Sigma, Darmstadt, Germany). The pH was adjusted to 1.6 with 1N hydrochloric acid, and the volume was then adjusted to 1 L with purified water. 60 mg FaSSIF powder (Biorelevant™, London, UK) were dissolved in 500 mL buffer (above). Pepsin was added (0.1 mg/mL) (Millipore Sigma, Darmstadt, Germany), and the solution was stirred. The resulting SGF media were used fresh for each experiment. Test compounds were dissolved in DMSO stock to 1 mM. An aliquot of the DMSO stock solution was removed and diluted in the SGF Media in 15 mL falcon tubes to generate a total compound concentration of 1 μM. A 1 mL aliquot was immediately removed and diluted once with 1 volume of acetonitrile for T0 timepoint. The mixture was sealed and mixed at 37° C. in an incubator. Aliquots (1 mL) were removed at regular intervals and immediately quenched by the addition of 1 volume of acetonitrile. The resulting samples were analyzed by LC/MS to determine degradation rates in SGF.

[2] = Stability of conjugates in Simulated Intestinal Fluid (SIF); type: in vitro ADME; details: simulated intestinal fluid pH 6.7 with pancreatin, 1 μM, 37° C.
Experimental: Assay 2. Stability of conjugates in Simulated Intestinal Fluid (SIF). This assay was used to assess the stability of a conjugate in a small intestine. Phosphate buffer was prepared by dissolving 0.42 g of sodium hydroxide pellets and 3.95 g of monobasic sodium phosphate monohydrate and 6.19 g of sodium chloride in ultrapure water (MilliQ®, Millipore Sigma, Darmstadt, Germany). The pH was adjusted to 6.7 using aq. HCl and aq. NaOH, as necessary, and the solution was diluted with ultrapure water to produce 1 L of the pH 6.7 buffer. 112 mg FaSSIF powder (Biorelevant™, London, UK) was dissolved in 50 mL of the pH 6.7 buffer. 2 to 3 mL of the resulting solution were then added to 500 mg pancreatin (Millipore Sigma, Darmstadt, Germany). The resulting mixture was agitated by finger tapping the vessel containing the mixture until milky suspension formed. At this time, the remainder of the 50 mL FaSSiF/pH 6.7 buffer solution was added. The resulting suspension was flipped upside down 10 times to produce SIF, which was used fresh. Test compounds were dissolved in DMSO stock to 1 mM. An aliquot of the DMSO stock solution was removed and diluted in the SIF media in 15 mL falcon tubes to produce a mixture with a tested compound concentration of 1 μM. A 1 mL aliquot was immediately removed and diluted once with 1 volume of acetonitrile for T0 timepoint. The mixture was sealed and agitated at 37° C. in an incubator. Aliquots (1 mL) were removed at regular intervals and immediately quenched by the addition of 1 volume of acetonitrile. The resulting samples were analyzed by LC/MS to determine degradation rates

[3] = In vitro Colonic Material Stability Assay; type: in vitro ADME; details: colonic material slurry, anaerobic, 1 or 10 μM, 24 h
Experimental: Assay 3 In vitro Colonic Material Stability Assay. This assay was used to assess the stability of an acylated active agent in a large intestine. All experiments were performed in an anaerobic chamber containing 90% nitrogen, 5% hydrogen and 5% carbon dioxide. Colonic material was resuspended as a slurry (15% w/v final concentration) in pre-reduced, anaerobically sterilized dilution blanks (Anaerobe Systems AS-908). The colonic material was then inoculated into 96 well plates containing YCFAC media (Anaerobe Systems AS-680) or other suitable media (6.7 μL slurry into 1 mL total media). Compounds or groups of compounds were added to each individual well to reach a final analyte concentration of 1 or 10 μM, and the material was mixed by pipetting. Sample was removed after set timepoints (0, 120, 240, 480, 1440, 2880 minutes after initiation of the assay), quenched with acetonitrile containing internal standard, and analyzed by LC/MS.

E. coli BL21(DE3) = experiment: Cell-based assay with ClbP with LCMS, ClbP negative strain; details: 10 μM compound, 37° C., 20 h
Experimental: (§1) This example is representative of the methods described in Example 97. ClbP was tested for its ability to activate compounds. […] Each of these three strains was struck out onto an appropriate solid media such as LB agar or BHI agar. The bacteria were then grown aerobically overnight at 37° C.
(§2) A single colony was isolated from the plate and inoculated into 10 mL LB. The liquid cultures were grown overnight aerobically at 37° C. with rocking on a nutator.
(§3) The saturated E. coli cultures were transferred into a biosafety cabinet. 5 μL of each culture was inoculated into fresh LB broth (200 μL total, 1:40 (v/v) dilution of the overnight culture), and the tested compound was added to a final concentration of 10 μM. To establish the native stability of the compound in media alone, the compound was also added to uninoculated media at a final concentration of 10 μM. Each compound was tested in duplicate with each strain or the media-alone incubation. The plate was sealed and incubated aerobically on a nutator at 37° C. for 20 h.
(§4) After 20 h, the reactions were stopped by addition of 200 μL acetonitrile. The contents of each well were mixed, and then the plate was centrifuged (4,000 rpm, 10 min). The plate was diluted serially to a final dilution of 1:100 first with Acetonitrile (10× dilution) and then with (4:1) Mobile Phase A-20 mM ammonium formate+water:Mobile Phase B-Isopropanol:Methanol:Water (4:4:2)+20 mM ammonium formate (10× dilution).
(§5) The amount of each remaining parent compound in each incubation was quantified by LC-MS analysis, with multiple-reaction monitoring targeting transitions specific to each parent compound.
(§6) The amount of compound present in the media-alone condition was normalized to 100%. The amount of parent compound present in the reaction with the ClbP-encoding E. coli (E. coli CFT073 ATCC 700928 and/or E. coli Nissle 1917) was compared to the amount present in the media-alone and expressed as a percent. Likewise, the amount of parent compound present in the reaction with the negative control E. coli BL21(DE3) was compared to the amount present in the media-alone and expressed as a percent.
(§7) In an ideal case, the amount of residual starting material in the reaction(s) with ClbP-encoding E. coli was <25% of the amount in the E. coli BL21(DE3) and media-alone conditions. In an acceptable case, the amount of residual starting material in the reaction(s) with ClbP-encoding E. coli was 25-75% of the amount in the E. coli BL21(DE3) and media-alone conditions. In a non-preferred case, the amount of residual starting material in the reaction(s) with ClbP-encoding E. coli was >75% of the amount in the E. coli BL21(DE3) and media-alone conditions.

[4] = system: E. coli CFT073 ATCC 700928 and/or E. coli Nissle 1917; experiment: Cell-based assay with ClbP with LCMS, ClbP positive strain; details: ClbP-encoding E. coli, 10 μM compound, 37° C., 20 h
Experimental: as §1, §2, §3, §4, §5, §6, §7

SMILES | Assay 1 (SGF) (% Remaining @ 1 hours) [1] | Assay 2 (SIF) (% @ Remaining 4 hours) [2] | Assay 3 (% Remaining at 24 h) [3] | % Remaining in ClbP Negative Relative to Media-Only (E. coli BL21(DE3)) | % Remaining in ClbP Positve Relative to Media-Only [4]
CCCCCCCCCCCCCC(=O)N[C@H](CC(N)=O)C(=O)N[C@H](C(=O)OC)C(C)C [Example 3, Methyl tetradecanoyl-D-asparaginyl-L-valinate] (Myristoyl-[dN]-Val-OMe) | C (>75% of the tested compound remaining) | C (>75% of the tested compound remaining) | B (25-75% of the tested compound remaining) | + (between 25-75% compound remaining in the 20 μM WT ClbP reaction relative to the no-enzyme control) | + (between 25-75% compound remaining in the 20 μM WT ClbP reaction relative to the no-enzyme control)
COC(=O)[C@H](C)NC(=O)[C@@H](CC(N)=O)NC(=O)Cc1ccccc1 [Example 14, Methyl (2-phenylacetyl)-D-asparaginyl-L-alaninate] (PhAc-[dN]-Ala-OMe) | C (>75% of the tested compound remaining) | A (<25% of the tested compound remaining) | C (>75% of the tested compound remaining) | − (>75% compound remaining in the 20 μM WT ClbP reaction relative to the no-enzyme control) | + (between 25-75% compound remaining in the 20 μM WT ClbP reaction relative to the no-enzyme control)
COC(=O)[C@H](C)NC(=O)[C@@H](CC(N)=O)NC(=O)c1ccccc1O [Example 16, Methyl (2-hydroxybenzoyl)-D-asparaginyl-L-alaninate] | C (>75% of the tested compound remaining) | A (<25% of the tested compound remaining) | B (25-75% of the tested compound remaining) | + (between 25-75% compound remaining in the 20 μM WT ClbP reaction relative to the no-enzyme control) | + (between 25-75% compound remaining in the 20 μM WT ClbP reaction relative to the no-enzyme control)
COC(=O)[C@H](C)NC(=O)[C@@H](CC(N)=O)NC(=O)C(C)c1ccc(CC(C)C)cc1 (stereo partly drawn) [Example 17, Methyl (2-(4-isobutylphenyl)propanoyl)-D-asparaginyl-L-alaninate] | C (>75% of the tested compound remaining) | A (<25% of the tested compound remaining) | C (>75% of the tested compound remaining) | + (between 25-75% compound remaining in the 20 μM WT ClbP reaction relative to the no-enzyme control) | + (between 25-75% compound remaining in the 20 μM WT ClbP reaction relative to the no-enzyme control)
CCCCCCCC(=O)N[C@H](CC(N)=O)C(=O)NCCCC(=O)OC [Example 43, Methyl (R)-4-(4-amino-2-octanamido-4-oxobutanamido)butanoate] | B (25-75% of the tested compound remaining) | B (25-75% of the tested compound remaining) | B (25-75% of the tested compound remaining) | − (>75% compound remaining in the 20 μM WT ClbP reaction relative to the no-enzyme control) | − (>75% compound remaining in the 20 μM WT ClbP reaction relative to the no-enzyme control)
CCCCCCCC(=O)N[C@H](CC(N)=O)C(=O)N[C@@H](C)CCC(=O)Oc1ccc(Br)cc1 [Example 47, 4-bromophenyl (S)-4-((R)-4-amino-2-octanamido-4-oxobutanamido)pentanoate] | C (>75% of the tested compound remaining) | A (<25% of the tested compound remaining) | A (<25% of the tested compound remaining) | − (>75% compound remaining in the 20 μM WT ClbP reaction relative to the no-enzyme control) | − (>75% compound remaining in the 20 μM WT ClbP reaction relative to the no-enzyme control)
CCCCCCCC(=O)N[C@H](CC(N)=O)C(=O)N[C@@H](C)CCC(=O)O[C@]1(CC)C(=O)OCc2c1cc1n(c2=O)Cc2c-1nc1ccc(O)cc1c2CC [Example 49, (S)-4,11-diethyl-9-hydroxy-3,14-dioxo-3,4,12,14-tetrahydro-1H-pyrano[3′,4′:6,7]indolizino[1,2-b]quinolin-4-yl (S)-4-((R)-4-amino-2-octanamido-4-oxobutanamido)pentanoate] | C (>75% of the tested compound remaining) | C (>75% of the tested compound remaining) | C (>75% of the tested compound remaining) | + (between 25-75% compound remaining in the 20 μM WT ClbP reaction relative to the no-enzyme control) | ++ (<25% compound remaining in the 20 μM WT ClbP reaction relative to the control)
COCCOCCC(=O)N[C@H](CC(N)=O)C(=O)N[C@@H](C)C(=O)OC [Example 61, Methyl (3-(2-methoxyethoxy)propanoyl)-D-asparaginyl-L-alaninate] | C (>75% of the tested compound remaining) | B (25-75% of the tested compound remaining) | C (>75% of the tested compound remaining) | − (>75% compound remaining in the 20 μM WT ClbP reaction relative to the no-enzyme control) | + (between 25-75% compound remaining in the 20 μM WT ClbP reaction relative to the no-enzyme control)
